Source: paper PMC9329436, “Optimization of the 4-anilinoquin(az)oline scaffold as epidermal growth factor receptor (EGFR) inhibitors for chordoma utilizing a toxicology profiling assay platform” (Scientific Reports, 2022)
Where two headings read alike, the source gives them in different places.

Tests used:
Format in all cases: biochemical
[1] = biological target: 320 wild-type protein kinases (Homo sapiens, UniProt P27037); conditions: ACV-R2A, singlicate
Text: (§1) Table S4. Profiling of two compounds at two concentrations against 320 wild-type protein kinases; singlicate measurement; Residual activities (% of control).

[2] = biological target: 320 wild-type protein kinases (Homo sapiens, UniProt Q13131); conditions: singlicate
Chain of 320 wild-type protein kinases (Homo sapiens, UniProt Q13131) (Q13131 whole entry): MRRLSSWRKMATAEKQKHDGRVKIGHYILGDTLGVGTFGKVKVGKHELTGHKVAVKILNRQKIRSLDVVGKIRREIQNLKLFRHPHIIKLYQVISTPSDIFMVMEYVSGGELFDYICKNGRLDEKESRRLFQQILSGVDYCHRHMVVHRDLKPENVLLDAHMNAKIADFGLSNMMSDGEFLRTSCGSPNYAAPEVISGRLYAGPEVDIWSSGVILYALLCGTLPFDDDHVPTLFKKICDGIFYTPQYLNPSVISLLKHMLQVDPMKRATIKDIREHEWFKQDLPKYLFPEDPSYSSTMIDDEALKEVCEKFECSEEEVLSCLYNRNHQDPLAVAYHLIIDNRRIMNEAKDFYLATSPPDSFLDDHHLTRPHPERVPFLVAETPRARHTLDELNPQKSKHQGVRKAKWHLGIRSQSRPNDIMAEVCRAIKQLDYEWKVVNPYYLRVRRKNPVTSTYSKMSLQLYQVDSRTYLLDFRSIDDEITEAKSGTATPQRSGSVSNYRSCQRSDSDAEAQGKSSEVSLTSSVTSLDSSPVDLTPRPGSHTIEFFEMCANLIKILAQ
Text: as §1

[3] = biological target: T1, 320 wild-type protein kinases (Homo sapiens, UniProt Q96BR1); conditions: kinase SGK3, singlicate
T1 sequence (Q96BR1 1-496): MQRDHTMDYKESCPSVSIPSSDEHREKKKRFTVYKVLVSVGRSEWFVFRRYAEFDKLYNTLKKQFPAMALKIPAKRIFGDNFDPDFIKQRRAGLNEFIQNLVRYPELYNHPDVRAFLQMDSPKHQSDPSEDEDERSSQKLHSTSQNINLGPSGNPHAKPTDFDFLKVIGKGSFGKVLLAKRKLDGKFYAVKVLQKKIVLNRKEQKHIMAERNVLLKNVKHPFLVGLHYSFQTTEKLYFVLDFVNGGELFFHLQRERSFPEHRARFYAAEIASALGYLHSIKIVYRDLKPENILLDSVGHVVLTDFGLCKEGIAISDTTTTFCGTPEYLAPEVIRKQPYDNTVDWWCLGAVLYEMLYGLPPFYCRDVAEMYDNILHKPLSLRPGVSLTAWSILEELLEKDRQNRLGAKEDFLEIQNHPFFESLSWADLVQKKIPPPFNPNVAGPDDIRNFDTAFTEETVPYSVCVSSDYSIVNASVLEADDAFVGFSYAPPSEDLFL
Text: as §1

[4] = biological target: T2, 320 wild-type protein kinases (Homo sapiens, UniProt Q9UHD2); conditions: kinase TBK1, singlicate
T2 sequence (Q9UHD2 1-729): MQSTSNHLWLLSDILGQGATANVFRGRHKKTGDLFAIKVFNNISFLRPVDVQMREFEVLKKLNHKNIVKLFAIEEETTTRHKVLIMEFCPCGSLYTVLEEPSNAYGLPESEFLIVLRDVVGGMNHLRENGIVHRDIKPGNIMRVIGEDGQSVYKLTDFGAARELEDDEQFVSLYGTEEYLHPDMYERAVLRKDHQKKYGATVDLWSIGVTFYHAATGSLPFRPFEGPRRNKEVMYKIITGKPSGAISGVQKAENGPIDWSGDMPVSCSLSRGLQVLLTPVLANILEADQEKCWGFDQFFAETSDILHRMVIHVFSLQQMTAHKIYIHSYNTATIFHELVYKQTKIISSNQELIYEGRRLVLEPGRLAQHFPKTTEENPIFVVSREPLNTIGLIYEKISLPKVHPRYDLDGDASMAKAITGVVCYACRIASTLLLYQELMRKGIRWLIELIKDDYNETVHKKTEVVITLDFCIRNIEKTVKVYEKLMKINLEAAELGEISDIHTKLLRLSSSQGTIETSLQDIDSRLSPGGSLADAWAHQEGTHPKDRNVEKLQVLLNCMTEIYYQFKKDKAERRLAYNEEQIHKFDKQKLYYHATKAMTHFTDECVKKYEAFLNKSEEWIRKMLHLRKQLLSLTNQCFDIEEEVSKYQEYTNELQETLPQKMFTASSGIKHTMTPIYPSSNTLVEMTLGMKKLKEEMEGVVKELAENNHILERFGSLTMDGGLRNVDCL
Text: as §1

[5] = biological target: T3, 320 wild-type protein kinases (Homo sapiens, UniProt Q9UEE5); conditions: kinase STK17A, singlicate
T3 sequence (Q9UEE5 1-414): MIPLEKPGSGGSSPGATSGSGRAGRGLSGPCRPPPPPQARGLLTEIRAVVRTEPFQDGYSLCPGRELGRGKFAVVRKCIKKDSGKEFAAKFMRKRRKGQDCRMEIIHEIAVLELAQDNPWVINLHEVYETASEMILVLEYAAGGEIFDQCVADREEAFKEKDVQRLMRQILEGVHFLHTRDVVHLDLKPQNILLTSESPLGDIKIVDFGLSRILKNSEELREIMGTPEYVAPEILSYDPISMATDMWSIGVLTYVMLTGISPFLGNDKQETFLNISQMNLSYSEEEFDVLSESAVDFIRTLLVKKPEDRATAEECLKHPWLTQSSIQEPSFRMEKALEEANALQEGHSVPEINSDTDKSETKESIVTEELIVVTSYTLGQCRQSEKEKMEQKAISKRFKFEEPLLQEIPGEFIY
Text: as §1

[6] = biological target: 320 wild-type protein kinases (Homo sapiens, UniProt Q96RR4); conditions: singlicate
Chain of 320 wild-type protein kinases (Homo sapiens, UniProt Q96RR4) (Q96RR4 whole entry): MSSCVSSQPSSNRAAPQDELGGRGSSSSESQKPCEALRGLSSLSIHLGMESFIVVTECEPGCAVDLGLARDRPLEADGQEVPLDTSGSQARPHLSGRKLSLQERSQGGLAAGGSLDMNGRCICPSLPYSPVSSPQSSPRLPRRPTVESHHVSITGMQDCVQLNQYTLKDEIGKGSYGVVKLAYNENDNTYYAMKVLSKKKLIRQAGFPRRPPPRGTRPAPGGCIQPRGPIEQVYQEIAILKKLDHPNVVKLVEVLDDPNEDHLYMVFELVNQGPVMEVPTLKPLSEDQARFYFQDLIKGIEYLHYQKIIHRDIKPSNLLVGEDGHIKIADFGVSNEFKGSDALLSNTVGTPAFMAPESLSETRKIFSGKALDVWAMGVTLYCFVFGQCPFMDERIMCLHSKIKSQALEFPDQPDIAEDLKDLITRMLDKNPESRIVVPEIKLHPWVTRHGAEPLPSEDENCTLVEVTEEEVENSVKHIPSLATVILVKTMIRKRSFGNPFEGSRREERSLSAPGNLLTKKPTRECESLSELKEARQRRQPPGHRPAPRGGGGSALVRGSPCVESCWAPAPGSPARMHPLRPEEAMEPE
Text: as §1

Chain of 320 wild-type protein kinases (Homo sapiens, UniProt P27037) (P27037 20-513): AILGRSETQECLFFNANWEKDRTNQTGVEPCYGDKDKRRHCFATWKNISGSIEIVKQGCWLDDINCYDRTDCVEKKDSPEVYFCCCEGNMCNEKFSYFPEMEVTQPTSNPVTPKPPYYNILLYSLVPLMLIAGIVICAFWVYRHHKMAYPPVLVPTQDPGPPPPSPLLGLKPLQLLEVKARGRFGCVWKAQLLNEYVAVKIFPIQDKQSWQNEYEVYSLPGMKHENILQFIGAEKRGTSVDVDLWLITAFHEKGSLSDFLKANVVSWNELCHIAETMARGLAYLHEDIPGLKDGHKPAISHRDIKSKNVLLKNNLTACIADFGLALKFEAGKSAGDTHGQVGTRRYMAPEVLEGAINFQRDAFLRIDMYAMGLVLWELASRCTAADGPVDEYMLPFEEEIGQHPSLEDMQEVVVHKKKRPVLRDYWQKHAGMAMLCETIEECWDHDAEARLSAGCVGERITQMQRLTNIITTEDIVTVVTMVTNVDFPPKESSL

Row | SMILES | Residual activity ([1]; 1.0E-06 M) | Residual activity ([1]; 1.0E-07 M) | Residual activity ([2]; AMPK-alpha1 aa1-550, 1.0E-06 M) | Residual activity ([2]; AMPK-alpha1 aa1-550, 1.0E-07 M) | Residual activity, SGK3 ([3]; assay conc. 1.0E-06 M) | Residual activity, SGK3 ([3]; assay conc. 1.0E-07 M) | Residual activity, TBK1 ([4]; assay conc. 1.0E-06 M) | Residual activity, TBK1 ([4]; assay conc. 1.0E-07 M) | Residual activity, STK17A ([5]; assay conc. 1.0E-06 M) | Residual activity, STK17A ([5]; assay conc. 1.0E-07 M) | Residual activity ([6]; CAMKK2, 1.0E-06 M) | Residual activity ([6]; CAMKK2, 1.0E-07 M)
1 | C#Cc1cc(Nc2ncnc3cc(I)ccc23)ccc1Cl [Compound 41] | 92 % of control | 96 % of control | 107 % of control | 106 % of control | 86 % of control | 91 % of control | 98 % of control | 106 % of control | 103 % of control | 104 % of control | 71 % of control | 96 % of control
2 | C#Cc1cc(Nc2ncnc3cc(OC)c(OC)cc23)ccc1Cl [Compound 45] | 96 % of control | 101 % of control | 98 % of control | 91 % of control | 89 % of control | 93 % of control | 89 % of control | 106 % of control | 83 % of control | 102 % of control | 74 % of control | 79 % of control
